Where two headings read alike, the source gives them in different places.
Tests used:
CYP2A6 = conditions: in vitro studies; cited from earlier work
[1] = assay type: in vivo, healthy subjects; conditions: for t½: mean (SD)
[2] = Ketoconazole study: two-way pharmacokinetic interaction, plasma pharmacokinetics; assay type: in vivo, healthy subjects; conditions: for t½: mean (SD)
CYP2C9 [3] = conditions: in vitro studies; cited from earlier work
CYP2E1 = conditions: in vitro studies; cited from earlier work
CYP2C19 = conditions: in vitro studies; cited from earlier work
CYP1A2 [4] = conditions: in vitro studies; cited from earlier work
CYP2B6 [5] = conditions: in vitro studies; cited from earlier work
CYP2B6 [6] = conditions: in vitro studies; cited from earlier work; remark: listed apart in the source
CYP2D6 = conditions: in vitro studies; cited from earlier work
[7] = Simvastatin study: two-way pharmacokinetic interaction, plasma pharmacokinetics; conditions: for decrease of Cmax by saxagliptin / increase of AUCτ by saxagliptin: saxagliptin 10 mg + simvastatin 40 mg relative to simvastatin alone
DPP-4 = conditions: cited from earlier work
[8] = excreted in urine; cited from earlier work
CYP3A4 [9] = conditions: in vitro studies; cited from earlier work
CYP2C9 [10] = conditions: in vitro studies; cited from earlier work; remark: listed apart in the source
CYP3A4 [11] = conditions: in vitro studies; cited from earlier work; remark: listed apart in the source
CYP1A2 [12] = conditions: in vitro studies; cited from earlier work; remark: listed apart in the source
[13] = Diltiazem extended-release study: adverse events; assay type: in vivo, healthy subjects; conditions: for first-degree atrioventricular block, subjects: by treatment: diltiazem extended-release 360 mg alone, saxagliptin 10 mg + diltiazem extended-release 360 mg, saxagliptin 10 mg alone
[14] = Ketoconazole study: adverse events; assay type: in vivo, healthy subjects
P-glycoprotein = conditions: in vitro data; no reference given; cited from earlier work
[15] = Simvastatin study: adverse events; assay type: in vivo, healthy subjects
[16] = compared with saxagliptin 10 mg alone
[17] = saxagliptin 10 mg + diltiazem extended-release 360 mg (day 10), geometric mean (CV%), n = 12
[18] = saxagliptin 10 mg administered alone (day 1), geometric mean (CV%), n = 12
[19] = compared with saxagliptin alone
[20] = saxagliptin 100 mg + ketoconazole 200 mg every 12 hours (day 9), geometric mean (CV%), n = 15
[21] = saxagliptin 100 mg administered alone (day 1), geometric mean (CV%), n = 15
[22] = saxagliptin 10 mg + simvastatin 40 mg relative to saxagliptin alone
[23] = saxagliptin 100 mg + ketoconazole versus ketoconazole alone

N#C[C@@H]1C[C@@H]2C[C@@H]2N1C(=O)[C@@H](N)C12CC3CC(O)(CC(O)(C3)C1)C2 [5-Hydroxy saxagliptin, 5-hydroxy saxagliptin]
inhibition of CYP2A6 (CYP2A6): neither saxagliptin nor 5-hydroxy saxagliptin inhibits | decrease of AUC0-t by diltiazem extended-release [1, 16]: 36% | decrease of AUC∞ by diltiazem extended-release [1, 16]: 34% | decrease of Cmax by diltiazem extended-release [1, 16]: 43% | Cmax ([1]; plasma, SAXA + DILT XR, saxagliptin 10 mg + diltiazem extended-release 360 mg (day 10), geometric mean (CV%), n = 12): 63 (26) ng/mL | Cmax ([1]; plasma, SAXA, saxagliptin 10 mg administered alone (day 1), geometric mean (CV%), n = 12): 111 (20) ng/mL | AUC0-t [1, 17]: 338 (24) ng · h/mL | AUC∞ [1, 17]: 353 (23) ng · h/mL | t½ ([1]; saxagliptin 10 mg + diltiazem extended-release 360 mg (day 10)): 3.30 (0.53) h | Tmax ([1]; saxagliptin 10 mg + diltiazem extended-release 360 mg (day 10), median (minimum, maximum)): 1.50 (1.00, 2.50) h | AUC0-t [1, 18]: 526 (25) ng · h/mL | AUC∞ [1, 18]: 538 (25) ng · h/mL | t½ ([1]; saxagliptin 10 mg administered alone (day 1)): 3.04 (0.38) h | Tmax ([1]; saxagliptin 10 mg administered alone (day 1), median (minimum, maximum)): 1.50 (1.00, 2.00) h | decrease of AUC0-t by ketoconazole [2, 19]: 91% | decrease of AUC∞ by ketoconazole [2, 19]: 88% | decrease of Cmax by ketoconazole [2, 19]: 95% | Cmax ([2]; plasma, SAXA + KETO, saxagliptin 100 mg + ketoconazole 200 mg every 12 hours (day 9), geometric mean (CV%), n = 15): 53 (49) ng/mL | Cmax ([2]; plasma, SAXA, saxagliptin 100 mg administered alone (day 1), geometric mean (CV%), n = 15): 999 (24) ng/mL | AUC0-t [2, 20]: 473 (59) ng · h/mL | AUC∞ [2, 20]: 627 (43) ng · h/mL | t½ ([2]; saxagliptin 100 mg + ketoconazole 200 mg every 12 hours (day 9)): 6.33 (2.49) h | Tmax ([2]; saxagliptin 100 mg + ketoconazole 200 mg every 12 hours (day 9), median (minimum, maximum)): 2.00 (0.75, 4.00) h | AUC0-t [2, 21]: 5294 (19) ng · h/mL | AUC∞ [2, 21]: 5381 (19) ng · h/mL | t½ ([2]; saxagliptin 100 mg administered alone (day 1)): 3.68 (0.53) h | Tmax ([2]; saxagliptin 100 mg administered alone (day 1), median (minimum, maximum)): 1.50 (1.00, 2.00) h | induction of CYP2C9 (CYP2C9 [3]): do not induce | inhibition of CYP2E1 (CYP2E1): neither saxagliptin nor 5-hydroxy saxagliptin inhibits | inhibition of CYP2C19 (CYP2C19): neither saxagliptin nor 5-hydroxy saxagliptin inhibits | induction of CYP1A2 (CYP1A2 [4]): do not induce | induction of CYP2B6 (CYP2B6 [5]): do not induce | inhibition of CYP2B6 (CYP2B6 [6]): neither saxagliptin nor 5-hydroxy saxagliptin inhibits | inhibition of CYP2D6 (CYP2D6): neither saxagliptin nor 5-hydroxy saxagliptin inhibits | Cmax ([7]; plasma, SAXA + SIMVA, saxagliptin 10 mg + simvastatin 40 mg (day 12), geometric mean (CV%), n = 23): 103 (29) ng/mL | Cmax ([7]; plasma, SAXA, saxagliptin 10 mg administered alone (day 4), geometric mean (CV%), n = 23): 96 (33) ng/mL | AUCτ ([7]; plasma, saxagliptin 10 mg + simvastatin 40 mg (day 12), geometric mean (CV%), n = 23): 538 (24) ng · h/mL | AUCτ ([7]; plasma, saxagliptin 10 mg administered alone (day 4), geometric mean (CV%), n = 23): 529 (26) ng · h/mL | Tmax ([7]; saxagliptin 10 mg + simvastatin 40 mg (day 12), median (minimum, maximum)): 1.50 (1.00, 2.00) h | increase of AUCτ by simvastatin [7, 22]: 2% | increase of Cmax by simvastatin [7, 22]: 8% | Tmax ([7]; saxagliptin 10 mg administered alone (day 4), median (minimum, maximum)): 1.50 (1.00, 3.00) h | DPP-4 inhibitive potency relative to the parent saxagliptin (DPP-4): one-half | renal clearance [8]: ~120 mL/min | inhibition of CYP3A4 (CYP3A4 [9]): neither saxagliptin nor 5-hydroxy saxagliptin inhibits | inhibition of CYP2C9 (CYP2C9 [10]): neither saxagliptin nor 5-hydroxy saxagliptin inhibits | induction of CYP3A4 (CYP3A4 [11]): do not induce | inhibition of CYP1A2 (CYP1A2 [12]): neither saxagliptin nor 5-hydroxy saxagliptin inhibits

COc1ccc([C@@H]2Sc3ccccc3N(CCN(C)C)C(=O)[C@@H]2OC(C)=O)cc1 [Diltiazem, diltiazem, reference compound]
first-degree atrioventricular block, subjects [13]: 42.9% | subjects with first-degree atrioventricular block who discontinued the trial ([13]; diltiazem extended-release 360 mg alone, on day 5): two of these subjects | adverse events reported (of thirteen in the study) ([13]; diltiazem extended-release 360 mg monotherapy): 12 | AUC ([1]; human, plasma, oral, 360 mg): 3870 ng·h/mL | Cmax ([1]; human, plasma, oral, 360 mg): 262 ng/mL | Tmax ([1]; human, plasma, oral, 360 mg): 13 h

CC(=O)N1CCN(c2ccc(OCC3COC(Cn4ccnc4)(c4ccc(Cl)cc4Cl)O3)cc2)CC1 (stereo not drawn) [Ketoconazole, ketoconazole]
headache, subjects ([14]; ketoconazole alone treatment group, 10/16): 62.5% | subjects discontinued due to adverse event of increased transaminases ([14]; mild, beginning on day 8, lasting 11 days, following ketoconazole alone): One subject | AUC ([2]; human, plasma, 200 mg): 42300 ng·h/mL | Cmax ([2]; human, plasma, 200 mg): 7040 ng/mL | Tmax ([2]; human, plasma, 200 mg): 2 h | decrease of AUCτ by saxagliptin [2, 23]: 13% | decrease of Cmax by saxagliptin [2, 23]: 16%

N#C[C@@H]1C[C@@H]2C[C@@H]2N1C(=O)[C@@H](N)C12CC3CC(CC(O)(C3)C1)C2 [Saxagliptin, saxagliptin, reference compound]
serious adverse events or deaths ([14]; after coadministration of saxagliptin and ketoconazole): no serious adverse events or deaths | serious adverse events or deaths ([13]; after coadministration of saxagliptin and diltiazem extended-release): no serious adverse events or deaths | first-degree atrioventricular block, subjects [13]: in no subjects | increase of AUC0-t by diltiazem extended-release [1, 16]: 113% | increase of AUC∞ by diltiazem extended-release [1, 16]: 109% | increase of Cmax by diltiazem extended-release [1, 16]: 63% | AUC0-t ([1]; human, plasma, oral, 10 mg): 152 ng·h/mL | AUC(0-inf) ([1]; human, plasma, oral, 10 mg): 158 ng·h/mL | Cmax ([1]; human, plasma, oral, 10 mg): 53 ng/mL | Tmax ([1]; human, plasma, oral, 10 mg): 0.5 h | half-life ([1]; human, plasma, oral, 10 mg): 2.38 h | increase of mean t½ by diltiazem extended-release ([1]; versus saxagliptin alone): 0.92 h | increase of AUC0-t by ketoconazole [2, 19]: 148% | increase of AUC∞ by ketoconazole [2, 19]: 145% | increase of Cmax by ketoconazole [2, 19]: 62% | AUC0-t ([2]; human, plasma, 100 mg): 1920 ng·h/mL | AUC(0-inf) ([2]; human, plasma, 100 mg): 1970 ng·h/mL | Cmax ([2]; human, plasma, 100 mg): 546 ng/mL | Tmax ([2]; human, plasma, 100 mg): 1 h | half-life ([2]; human, plasma, 100 mg): 2.37 h | increase of mean t½ by ketoconazole ([2]; versus saxagliptin alone): 1.1 h | induction of CYP2C9 (CYP2C9 [3]): do not induce | inhibition of CYP2C19 (CYP2C19): neither saxagliptin nor 5-hydroxy saxagliptin inhibits | inhibition of CYP2D6 (CYP2D6): neither saxagliptin nor 5-hydroxy saxagliptin inhibits | AUC ([7]; human, in vivo, 10 mg): 153 ng·h/mL | Cmax ([7]; human, in vivo, 10 mg): 44 ng/mL | Tmax ([7]; human, in vivo, 10 mg): 1 h | increase of AUCτ by simvastatin [7, 22]: 12% | renal clearance [8]: approximately 230 mL/min | inhibition of CYP3A4 (CYP3A4 [9]): neither saxagliptin nor 5-hydroxy saxagliptin inhibits | inhibition of CYP2C9 (CYP2C9 [10]): neither saxagliptin nor 5-hydroxy saxagliptin inhibits | substrate for the efflux transporter P-glycoprotein (P-glycoprotein): weak substrate | induction of CYP3A4 (CYP3A4 [11]): do not induce | serious adverse events or deaths ([15]; after coadministration of saxagliptin and simvastatin): no serious adverse events or deaths

CCC(C)(C)C(=O)O[C@H]1C[C@@H](C)C=C2C=C[C@H](C)[C@H](CC[C@@H](O)C[C@@H](O)CC(=O)O)[C@H]21 [Simvastatin acid, simvastatin acid]
AUC ([7]; human, in vivo, 40 mg): 17.9 ng·h/mL | decrease of Cmax by saxagliptin [7]: unchanged | increase of AUCτ by saxagliptin [7]: 16% | Tmax ([7]; simvastatin 40 mg administered alone (day 8), median (minimum, maximum)): 4.00 (2.00, 8.00) h

CCC(C)(C)C(=O)O[C@H]1C[C@@H](C)C=C2C=C[C@H](C)[C@H](CC[C@@H]3C[C@@H](O)CC(=O)O3)[C@H]21 [Simvastatin, simvastatin, reference compound]
decrease of Cmax by saxagliptin [7]: 12% | increase of AUCτ by saxagliptin [7]: 4% | subjects discontinued due to mild upper respiratory tract infection ([15]; simvastatin 40-mg group, diagnosed on day 5, deemed possibly related to study drug): One subject
